Like-named read-outs stand apart in the source and are kept apart here.
Tested on: test plant species
Experiment: Post-emergent herbicidal activity test (greenhouse, foliar spray, visual growth reduction)
Type: in vivo
Conditions: post-emergence, 336 h, 140 g ai/ha
In short: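 Greenhouse plants at first–second true leaf stage sprayed overhead at 187 L/ha with compound in acetone/water/isopropanol/DMSO/crop oil/X-77 carrier; controls received solvent blank. Injury rated visually after 14 d on a 0–100% scale versus untreated and control plants, converted to growth reduction.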

[1] = ECHCG: barnyardgrass (Echinochloa crus-galli), 14 days after application, read-out: Visual Growth Reduction (%) 14 Days After Application, ECHCG
[2] = IPOHE: ivy-leaf morning glory (Ipomoea hederacea), 14 days after application, read-out: Visual Growth Reduction (%) 14 Days After Application, IPOHE
[3] = KCHSC: kochia (Bassia scoparia), 14 days after application, read-out: Visual Growth Reduction (%) 14 Days After Application, KCHSC
[4] = ORYSA: rice (Oryza sativa), 14 days after application, read-out: Visual Growth Reduction (%) 14 Days After Application, ORYSA
[5] = SETFA: giant foxtail (Setaria faberi), 14 days after application, read-out: Visual Growth Reduction (%) 14 Days After Application, SETFA
[6] = SORVU: grain sorghum (Sorghum vulgare), 14 days after application, read-out: Visual Growth Reduction (%) 14 Days After Application, SORVU
[7] = STEME: common chickweed (Stellaria media), 14 days after application, read-out: Visual Growth Reduction (%) 14 Days After Application, STEME
[8] = TRZAS: wheat, spring (Triticum aestivum), 14 days after application, read-out: Visual Growth Reduction (%) 14 Days After Application, TRZAS
[9] = blackgrass (Alopecurus myosuroides), 14 Days After Application, read-out: Visual Growth Reduction (%) ALOMY
[10] = canada thistle (Cirsium arvense), 14 Days After Application, read-out: Visual Growth Reduction (%) CIRAR
[11] = crabgrass (Digitaria sanguinalis), 14 Days After Application, read-out: Visual Growth Reduction (%) DIGSA
[12] = lambsquarters (Chenopodium album), 14 Days After Application, read-out: Visual Growth Reduction (%) CHEAL
[13] = redroot pigweed (Amaranthus retroflexus), 14 Days After Application, read-out: Visual Growth Reduction (%) AMARE
[14] = wild oat (Avena fatua), 14 Days After Application, read-out: Visual Growth Reduction (%) AVEFA
[15] = yellow nutsedge (Cyperus esculentus), 14 Days After Application, read-out: Visual Growth Reduction (%) CYPES
[16] = ALOMY: blackgrass (Alopecurus myosuroides), 14 days after application, read-out: Visual Growth Reduction (%) 14 Days After Application, ALOMY
[17] = AMARE: redroot pigweed (Amaranthus retroflexus), 14 days after application, read-out: Visual Growth Reduction (%) 14 Days After Application, AMARE
[18] = AVEFA: wild oat (Avena fatua), 14 days after application, read-out: Visual Growth Reduction (%) 14 Days After Application, AVEFA
[19] = CHEAL: lambsquarters (Chenopodium album), 14 days after application, read-out: Visual Growth Reduction (%) 14 Days After Application, CHEAL
[20] = CIRAR: canada thistle (Cirsium arvense), 14 days after application, read-out: Visual Growth Reduction (%) 14 Days After Application, CIRAR
[21] = CYPES: yellow nutsedge (Cyperus esculentus), 14 days after application, read-out: Visual Growth Reduction (%) 14 Days After Application, CYPES
[22] = DIGSA: crabgrass (Digitaria sanguinalis), 14 days after application, read-out: Visual Growth Reduction (%) 14 Days After Application, DIGSA

| SMILES | pest or weed control at 140 g/ha [1] [%] | pest or weed control at 140 g/ha [2] [%] | pest or weed control at 140 g/ha [3] [%] | pest or weed control at 140 g/ha [4] [%] | pest or weed control at 140 g/ha [5] [%] | pest or weed control at 140 g/ha [6] [%] | pest or weed control at 140 g/ha [7] [%] | pest or weed control at 140 g/ha [8] [%] | pest or weed control at 140 g/ha [9] [%] | pest or weed control at 140 g/ha [10] [%] | pest or weed control at 140 g/ha [11] [%] | pest or weed control at 140 g/ha [12] [%] | pest or weed control at 140 g/ha [13] [%] | pest or weed control at 140 g/ha [14] [%] | pest or weed control at 140 g/ha [15] [%] | pest or weed control at 140 g/ha [16] [%] | pest or weed control at 140 g/ha [17] [%] | pest or weed control at 140 g/ha [18] [%] | pest or weed control at 140 g/ha [19] [%] | pest or weed control at 140 g/ha [20] [%] | other results |
| --- | --- | --- | --- | --- | --- | --- | --- | --- | --- | --- | --- | --- | --- | --- | --- | --- | --- | --- | --- | --- | --- |
| COC(=O)c1nc(-c2ccc(SC)cc2)c(F)cc1Cl [F248, Methyl 3-chloro-5-fluoro-6-(4-(methylthio)phenyl) picolinate] | 0 to 29 | 30 to 44 | 0 to 29 | 0 to 29 | 0 to 29 | 0 to 29 | 0 to 29 | 0 to 29 | 0 to 29 | 0 to 29 | 60 to 74 | 0 to 29 | 0 to 29 | 0 to 29 | 0 to 29 |  |  |  |  |  |  |
| COC(=O)c1nc(-c2ccc(/C=N/N(C)C)cc2Cl)ccc1Cl [F20, methyl 3-chloro-6-(2-chloro-4-((2,2-dimethylhydrazono)methyl)phenyl) picolinate] |  |  |  |  |  |  |  |  |  |  |  |  |  |  |  | 0 to 29 | 0 to 29 | 0 to 29 | 0 to 29 | 0 to 29 | pest or weed control at 140 g/ha [21]: 0 to 29%; pest or weed control at 140 g/ha [22]: 0 to 29%; pest or weed control at 140 g/ha (barnyardgrass (Echinochloa crus-galli), 14 Days After Application, read-out: Visual Growth Reduction (%) ECHCG): 0 to 29%; pest or weed control at 140 g/ha (common chickweed (Stellaria media), 14 Days After Application, read-out: Visual Growth Reduction (%) STEME): 0 to 29%; pest or weed control at 140 g/ha (giant foxtail (Setaria faberi), 14 Days After Application, read-out: Visual Growth Reduction (%) SETFA): 0 to 29%; pest or weed control at 140 g/ha (ivy-leaf morning glory (Ipomoea hederacea), 14 Days After Application, read-out: Visual Growth Reduction (%) IPOHE): 60 to 74%; pest or weed control at 140 g/ha (johnsongrass (Sorghum vulgare), 14 Days After Application, read-out: Visual Growth Reduction (%) SORVU): 0 to 29%; pest or weed control at 140 g/ha (kochia (Bassia scoparia), 14 Days After Application, read-out: Visual Growth Reduction (%) KCHSC): 0 to 29%; pest or weed control at 140 g/ha (rice (Oryza sativa), 14 Days After Application, read-out: Visual Growth Reduction (%) ORYSA): 0 to 29%; pest or weed control at 140 g/ha (wheat, spring (Triticum aestivum), 14 Days After Application, read-out: Visual Growth Reduction (%) TRZAS): 0 to 29% |
| COc1nc(C(F)(F)F)ccc1-c1nc(C(=O)O)c(Cl)cc1F [F347, 5-Chloro-3-fluoro-2′-methoxy-6′-(trifluoromethyl)-[2,3′-bipyridine]-6-carboxylic acid] | 85 to 94 | 95 to 100 | 85 to 94 | 30 to 44 | 85 to 94 | 85 to 94 | 0 to 29 | 75 to 84 | 60 to 74 | 85 to 94 | 95 to 100 | 95 to 100 | 95 to 100 | 60 to 74 | 0 to 29 |  |  |  |  |  |  |
| CCOc1c(Cl)ccc(-c2ccc(Cl)c(C(=O)OC)n2)c1Cl [F276, Methyl 3-chloro-6-(2,4-dichloro-3-ethoxyphenyl) picolinate] | 0 to 29 | 0 to 29 | 0 to 29 | 0 to 29 | 0 to 29 | 0 to 29 | 0 to 29 | 0 to 29 | 0 to 29 | 0 to 29 | 0 to 29 | 0 to 29 | 0 to 29 | 0 to 29 | 0 to 29 |  |  |  |  |  |  |
| O=C(OCc1ccncc1)c1nc(-c2ccc(C(F)(F)F)cc2Cl)ccc1Cl [F81, Pyridin-4-ylmethyl 3-chloro-6-(2-chloro-4-(trifluoromethyl)phenyl)picolinate] | 95 to 100 | 95 to 100 | 95 to 100 | 60 to 74 | 95 to 100 | 85 to 94 | 0 to 29 | 75 to 84 |  |  |  |  |  |  |  | 60 to 74 | 95 to 100 | 60 to 74 | 75 to 84 | 95 to 100 | pest or weed control at 140 g/ha [21]: 0 to 29%; pest or weed control at 140 g/ha [22]: 95 to 100% |
